Tests used:
[1] = target: SARS-CoV-2 Main Protease (SARS-CoV-2) (UniProt P0DTD1)
[2] = target: SARS-CoV-2 Main Protease (SARS-CoV-2) (UniProt P0DTD1); conditions: for inhibition: 50.0 µM

Compound: O=C(NCc1cccnn1)Nc1cccc(-c2ncc3n2CCCC3)c1
- inhibition ([1]; 20.0 µM): -2.92%
- inhibition ([1]; 50.0 µM): -5.29%
- inhibition [2]: 0%

Compound: Cc1cc(Cl)cc(CC2CCN(C(=O)CCl)CC2)c1
- inhibition ([1]; 20.0 µM): 95.1%
- inhibition ([1]; 50.0 µM): 98.3%
- IC50 [2]: 1.24 µM
- inhibition [2]: 100%

Compound: O=[N+]([O-])c1cnc(Sc2nnc(-c3ccco3)n2-c2ccc(OCc3ccccc3)cc2)s1
- inhibition ([1]; 20.0 µM): 31.8%
- inhibition ([1]; 50.0 µM): 94.4%
- IC50 [2]: 0.66 µM

Compound: C=CC(=O)NCC(=O)N(Cc1ccccc1)C[C@H](O)c1ccccc1 (stereo in doubt)
- inhibition ([1]; 20.0 µM): -0.281%
- inhibition ([1]; 50.0 µM): 0.986%
- inhibition [2]: 0%

Compound: Cc1cn2c(-c3cccnc3)c(-c3ccc(F)cc3)nc2s1
- inhibition ([1]; 20.0 µM): -2.02%
- inhibition ([1]; 50.0 µM): 1.34%
- inhibition [2]: 31.5%

Compound: COc1cccc(C(=O)Nc2n[nH]c(SCc3ccc(Cl)cc3)n2)c1
- inhibition ([1]; 20.0 µM): 8.77%
- inhibition ([1]; 50.0 µM): 32.5%
- IC50 [2]: 0.2 µM

Compound: COc1ccc(-c2cc(COc3cc(Cl)cc(CC(=O)Nc4cnccc4C)c3)on2)cc1
- IC50 [1]: 71.5 µM
- IC50 [2]: 13.8 µM
- inhibition [2]: 67.3%

Compound: OC[C@@]1(F)CCN(c2nc(-c3cccnc3)nc3sc4c(c23)CCC4)C1 (stereo in doubt)
- inhibition ([1]; 20.0 µM): 1.46%
- inhibition ([1]; 50.0 µM): 6.05%
- inhibition [2]: 0%

Compound: Cc1cnc2c(-c3ccc4[nH]ncc4c3)c(-c3ccc(F)cc3)nn2c1
- inhibition ([1]; 20.0 µM): -1.68%
- inhibition ([1]; 50.0 µM): -1%
- inhibition [2]: 34.7%

Compound: C=CC(=O)N(C1CC(C)OC1=O)C(C(=O)NC(C)(C)C)c1cccnc1 (stereo not given)
- inhibition ([1]; 20.0 µM): -2.18%
- inhibition ([1]; 50.0 µM): 1.34%
- inhibition [2]: 0%

Compound: CC(=O)N1CCN(CC(=O)Nc2cncc3ccccc23)CC1
- IC50 [1]: 71.7 µM
- IC50 [2]: 72.5 µM
- inhibition [2]: 42.4%

Compound: O=C(C(F)Cl)N1CCN(Cc2cccc3ccccc23)CC1 (stereo not given)
- inhibition ([1]; 20.0 µM): 20.5%
- inhibition ([1]; 50.0 µM): 29.5%
- inhibition [2]: 9.11%

Compound: C=CC(=O)N(C(CO)CC#CC)C(C(=O)NC(C)(C)C)c1cccnc1 (stereo not given)
- inhibition ([1]; 20.0 µM): -4.06%
- inhibition ([1]; 50.0 µM): -4.3%
- inhibition [2]: 0%

Compound: N#Cc1cccc(CN2C(=O)C(=O)c3cccc(Br)c32)c1
- inhibition ([1]; 20.0 µM): -5.42%
- inhibition ([1]; 50.0 µM): -2.38%
- IC50 [2]: 0.017 µM
- inhibition [2]: 91.2%

Compound: CCOc1ccccc1OC1CCN(C(=O)c2c(C)c(=O)[nH]c3ccccc23)C1 (stereo not given)
- inhibition ([1]; 20.0 µM): 0.342%
- inhibition ([1]; 50.0 µM): 4.57%
- inhibition [2]: 0%

Compound: Cc1nc(N)sc1CN1CCN(Cc2cccc(Cl)c2)C1=O
- inhibition ([1]; 20.0 µM): 5.38%
- inhibition ([1]; 50.0 µM): 35.6%
- inhibition [2]: 0%

Compound: Cc1cc(C)nc(NC2CCN(C(=O)CCl)CC2)n1
- inhibition ([1]; 20.0 µM): 46.1%
- inhibition ([1]; 50.0 µM): 81.5%
- IC50 [2]: 19.5 µM
- inhibition [2]: 100%

Compound: O=C1C(=O)N(CCCOc2ccc(Cl)cc2)c2ccccc21
- inhibition ([1]; 20.0 µM): -0.218%
- inhibition ([1]; 50.0 µM): 3.47%
- inhibition [2]: 7.23%

Compound: Cc1ccn2c(-c3ccc4[nH]ncc4c3)c(-c3ccc(F)cc3)nc2c1
- inhibition ([1]; 20.0 µM): 0.801%
- inhibition ([1]; 50.0 µM): 0.943%
- inhibition [2]: 50.8%
